Laboratory results from patent publication US11053248B2, “[1,2,4]triazolo[1,5-a]pyrimidine compounds as PDE2 inhibitors” (Janssen Pharmaceutica NV, priority 2016, dated 2021).
Read-outs that look alike come from different tables or passages of the source.

Assays:
hPDE2A = biological target: T1, hPDE2A (Homo sapiens, UniProt O00408); assay: In vitro assay PDE2A (SPA, 3H-cGMP); assay type: biochemical; conditions: for Emax: read-out: hPDE2A Emax
T1 construct: made in house; host or cells: Sf9 insect cells (baculovirus)
Experimental: Human recombinant PDE2A (hPDE2A) was expressed in Sf9 cells using a recombinant rPDE10A baculovirus construct. Cells were harvested after 48 h of infection and the hPDE2A protein was purified by metal chelate chromatography on Ni-sepharose 6FF. Tested compounds were dissolved and diluted in 100% DMSO to a concentration 100 fold of the final concentration in the assay. Compound dilutions (0.4 μl) were added in 384 well plates to 20 μl of incubation buffer (50 mM Tris pH 7.8, 8.3 mM MgCl2, 1.7 mM EGTA). 10 μl of hPDE2A enzyme in incubation buffer was added and the reaction was started by addition of 10 μl substrate to a final concentration of 10 μM cGMP and 0.01 μCi ^3H-cGMP. The reaction was incubated for 45 minutes at room temperature. […] After sedimentation of the beads during 30 minutes the radioactivity was measured in a Perkin Elmer Topcount scintillation counter and results were expressed as cpm. For blanc values the enzyme was omitted from the reaction and replaced by incubation buffer. Control values were obtained by addition of a final concentration of 1% DMSO instead of compound.

hPDE10A2 = hPDE10A2 (Homo sapiens, UniProt Q9Y233); assay: biochemical; conditions: for IC50: 60 nM cAMP substrate, read-out: hPDE10A2 pIC50 (converted); for Emax: read-out: hPDE10A2 Emax
Experimental: Rat recombinant PDE10A (rPDE10A2) was expressed in Sf9 cells using a recombinant rPDE10A baculovirus construct. Cells were harvested after 48 h of infection and the rPDE10A protein was purified by metal chelate chromatography on Ni-sepharose 6FF. Tested compounds were dissolved and diluted in 100% DMSO to a concentration 100 fold of the final concentration in the assay. Human recombinant PDE10A […] was expressed in Sf9 cells using a recombinant hPDE10A baculovirus that was made and amplified in house. Cells were harvested after 72 h of infection and the hPDE10A protein was purified by metal chelate chromatography on Ni-sepharose. Compound dilutions (0.4 μl) were added in 384 well plates to 20 μl of incubation buffer (50 mM Tris pH 7.8, 8.3 mM MgCl2, 1.7 mM EGTA). […] of rPDE10A or hPDE10A enzyme in incubation buffer was added and the reaction was started by addition of 10 μl substrate to a final concentration of 60 nM cAMP and 0.008 μCi ^3H-cAMP. The reaction was incubated for 60 minutes at room temperature. […] After sedimentation of the beads during 30 minutes the radioactivity was measured in a Perkin Elmer Topcount scintillation counter and results were expressed as cpm. For blanc values the enzyme was omitted from the reaction and replaced by incubation buffer. Control values were obtained by addition of a final concentration of 1% DMSO instead of compound.

hPDE3B = assay: In vitro assay PDE3 (SPA, 3H-cAMP); assay type: biochemical, human; set-up: hPDE3B Emax: unit not given here; conditions: for hPDE3B pIC50: 0.4 μM cAMP substrate
PDE2A = biological target: T2, PDE2A (Rattus norvegicus, UniProt Q01062); assay: PDE2 occupancy by ex-vivo autoradiography with [3H]B-17a; assay type: in vivo; conditions: rat; for ED50: read-out: PDE occupancy ED50, route PO (oral), male Wistar rats, dose producing 50% occupancy
T2 construct: from tissue; host or cells: rat brain striatal sections (ex vivo)
T2 sequence (Q01062 1-928): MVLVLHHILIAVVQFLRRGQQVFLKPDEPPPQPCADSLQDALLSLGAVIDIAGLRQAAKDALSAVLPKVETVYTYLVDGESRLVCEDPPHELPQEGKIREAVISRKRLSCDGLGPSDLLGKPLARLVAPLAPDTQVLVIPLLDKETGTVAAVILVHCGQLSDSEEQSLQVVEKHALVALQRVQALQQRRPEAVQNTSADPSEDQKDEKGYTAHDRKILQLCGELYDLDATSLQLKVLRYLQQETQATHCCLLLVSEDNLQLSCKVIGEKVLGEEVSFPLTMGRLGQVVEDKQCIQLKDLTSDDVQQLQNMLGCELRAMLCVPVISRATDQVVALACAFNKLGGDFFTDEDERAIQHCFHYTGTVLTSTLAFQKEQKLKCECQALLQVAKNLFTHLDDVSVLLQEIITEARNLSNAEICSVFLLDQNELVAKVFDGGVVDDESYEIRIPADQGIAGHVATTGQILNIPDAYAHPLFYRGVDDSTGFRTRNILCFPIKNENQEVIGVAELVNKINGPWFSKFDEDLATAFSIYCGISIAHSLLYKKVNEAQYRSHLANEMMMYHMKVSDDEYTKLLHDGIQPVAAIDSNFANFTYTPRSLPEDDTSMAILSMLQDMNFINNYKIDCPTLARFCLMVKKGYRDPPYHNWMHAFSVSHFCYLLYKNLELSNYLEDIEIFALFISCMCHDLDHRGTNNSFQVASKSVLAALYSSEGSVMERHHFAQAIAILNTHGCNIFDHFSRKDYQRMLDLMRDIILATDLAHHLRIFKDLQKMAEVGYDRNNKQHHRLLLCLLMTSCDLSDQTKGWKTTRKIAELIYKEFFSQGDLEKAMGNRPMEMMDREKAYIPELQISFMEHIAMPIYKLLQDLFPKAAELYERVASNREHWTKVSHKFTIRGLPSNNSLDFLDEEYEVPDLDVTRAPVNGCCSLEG
Experimental: PDE2 Occupancy by Test Compounds Methods
Brains were immediately removed from the skull and rapidly frozen in dry-ice cooled 2-methylbutane (−40° C.).
After thawing, sections were dried under a cold stream of air and incubated for one minute with 30 nM [^3H]B-17a in Tris-HCl (50 mM, pH7.4) containing 0.3% BSA. Brain sections from drug-treated and vehicle-treated animals were incubated in parallel. […] After incubation, the excess of [^3H]B-17a was washed off in ice-cold buffer 2 times 10 minutes, followed by a quick dip in distilled water. The sections were then dried under a stream of cold air.
Brain sections were loaded in a β-imager (Biospace, Paris) for 4 h and radioactivity emerging from delineated brain area was quantified using the Beta vision program (Biospace, Paris). Specific binding was determined as the difference between total binding in the striatum and non-specific binding in the cerebellum. Percentage receptor occupancy of the drug administered to the animal corresponded to 100% minus the percentage receptor labeled in the treated animal. For the determination of ED50-values, the percentage of receptor occupancy was plotted against dose and the sigmoidal log dose-effect curve of best fit was calculated by non-linear regression analysis, using the GraphPad Prism program.

[1] = 10 μM cGMP substrate, read-out: hPDE2A pIC50 (converted)
[2] = route PO (oral), 10 mg/kg, male Wistar rats, striatum, percentage occupancy, read-out: PDE2 occupancy at 10 mg/kg
[3] = po, read-out: PDE2 occupancy at 10 mg/kg, route PO (oral), 10 mg/kg, male Wistar rats, striatum, percentage occupancy
[4] = po, read-out: PDE2 occupancy at 10 mg/kg
[5] = route SC (subcutaneous), 10 mg/kg, male Wistar rats, striatum, percentage occupancy, read-out: PDE2 occupancy at 10 mg/kg
[6] = sc, read-out: PDE2 occupancy at 10 mg/kg, route SC (subcutaneous), 10 mg/kg, male Wistar rats, striatum, percentage occupancy

T1 sequence (O00408 whole entry): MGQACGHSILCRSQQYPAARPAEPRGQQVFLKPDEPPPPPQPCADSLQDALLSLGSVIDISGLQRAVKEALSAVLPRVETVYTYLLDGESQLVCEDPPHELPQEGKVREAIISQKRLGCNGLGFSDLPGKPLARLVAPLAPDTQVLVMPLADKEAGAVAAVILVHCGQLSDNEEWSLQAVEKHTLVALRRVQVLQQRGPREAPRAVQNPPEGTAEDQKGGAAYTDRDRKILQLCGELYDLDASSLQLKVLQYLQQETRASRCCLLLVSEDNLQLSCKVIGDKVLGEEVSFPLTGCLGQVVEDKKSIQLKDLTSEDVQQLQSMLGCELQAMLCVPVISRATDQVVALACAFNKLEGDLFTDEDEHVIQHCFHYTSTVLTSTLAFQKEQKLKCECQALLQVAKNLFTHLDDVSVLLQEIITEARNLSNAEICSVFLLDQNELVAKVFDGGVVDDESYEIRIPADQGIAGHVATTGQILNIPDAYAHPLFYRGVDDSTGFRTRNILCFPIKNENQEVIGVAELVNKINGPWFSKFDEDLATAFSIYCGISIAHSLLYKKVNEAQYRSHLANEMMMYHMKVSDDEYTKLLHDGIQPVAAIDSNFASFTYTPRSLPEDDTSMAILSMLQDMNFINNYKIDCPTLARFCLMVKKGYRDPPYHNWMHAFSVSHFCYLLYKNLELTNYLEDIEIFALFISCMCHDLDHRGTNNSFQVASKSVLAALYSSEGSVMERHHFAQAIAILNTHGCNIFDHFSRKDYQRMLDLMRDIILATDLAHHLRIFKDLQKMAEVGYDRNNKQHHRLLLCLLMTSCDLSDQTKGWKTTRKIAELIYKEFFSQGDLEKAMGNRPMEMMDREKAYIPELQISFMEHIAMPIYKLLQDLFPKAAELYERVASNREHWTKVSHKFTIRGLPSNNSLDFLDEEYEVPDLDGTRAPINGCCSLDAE
Chain of hPDE10A2 (Q9Y233 267-1055): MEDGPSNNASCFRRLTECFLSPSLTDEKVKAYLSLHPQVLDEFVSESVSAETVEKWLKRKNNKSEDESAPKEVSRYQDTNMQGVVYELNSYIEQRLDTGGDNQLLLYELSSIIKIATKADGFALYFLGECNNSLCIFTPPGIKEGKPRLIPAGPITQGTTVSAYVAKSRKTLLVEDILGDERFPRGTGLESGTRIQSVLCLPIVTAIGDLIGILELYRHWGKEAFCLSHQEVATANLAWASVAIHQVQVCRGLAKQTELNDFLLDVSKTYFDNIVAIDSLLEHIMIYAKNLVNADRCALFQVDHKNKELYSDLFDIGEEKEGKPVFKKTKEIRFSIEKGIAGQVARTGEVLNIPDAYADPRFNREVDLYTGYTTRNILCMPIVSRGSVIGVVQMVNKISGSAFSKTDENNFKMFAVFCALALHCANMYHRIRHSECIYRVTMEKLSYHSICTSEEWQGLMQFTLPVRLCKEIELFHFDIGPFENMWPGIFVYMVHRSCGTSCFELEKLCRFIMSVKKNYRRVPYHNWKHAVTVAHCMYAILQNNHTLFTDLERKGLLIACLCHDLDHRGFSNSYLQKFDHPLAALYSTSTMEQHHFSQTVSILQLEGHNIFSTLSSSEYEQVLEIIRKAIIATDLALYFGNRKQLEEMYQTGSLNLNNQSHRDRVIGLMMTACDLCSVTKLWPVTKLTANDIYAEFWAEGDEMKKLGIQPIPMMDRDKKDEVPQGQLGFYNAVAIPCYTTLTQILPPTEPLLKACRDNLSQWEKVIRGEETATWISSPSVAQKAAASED

Row | Compound | IC50 (hPDE2A; [1]) | Emax (hPDE2A) | IC50 (hPDE10A2) | Emax (hPDE10A2) | hPDE3B Emax (hPDE3B) | hPDE3B pIC50 (hPDE3B) | melting point | IC50 (hPDE2A) | receptor occupancy at 10 mg/kg (PDE2A; [2]) | receptor occupancy at 10 mg/kg (PDE2A; [3]) | ED50 (PDE2A; po) | receptor occupancy at 10 mg/kg (PDE2A; [4]) | receptor occupancy at 10 mg/kg (PDE2A; [5]) | receptor occupancy at 10 mg/kg (PDE2A; [6])
1 | C[C@@H]1CCN(c2cc(C#N)c3cc(Cl)ccc3n2)C[C@H]1c1cc(C(F)F)nc2ncnn12 [Compound 37] | 129 nM | 102% | 363 nM | 96% | 70 | 5.17 | 235.11 °C | – | – | – | – | – | – | –
2 | C[C@H]1CCN(c2nccc3occc23)C[C@@H]1c1cc(C(F)F)nc2ncnn12 [Compound 30] | – | 9% | > 10000 nM | 41% | 53 | 5.02 | 184.03 °C | 8510 nM | – | – | – | – | – | –
3 | Cc1cc(C(F)(F)F)cc(N2CC[C@@H](C)[C@H](c3cc(C(F)F)nc4ncnn34)C2)n1 [Compound 21] | – | 101% | 269 nM | 95% | 93 | 5.83 | 124.81 °C | 61.7 nM | 9% | – | – | – | – | –
4 | Cc1cc([C@@H]2CN(c3nccc4ccc(Br)cc34)CC[C@H]2C)n2ncnc2n1 [Compound 2] | – | 100% | 74.1 nM | 102% | 89 | 5.45 | – | 1.07 nM | – | 96% | 2.6 mg/kg | – | – | –
5 | C[C@@H]1CCN(c2nccc3ccc(Cl)cc23)C[C@H]1c1cc(C(F)F)nc2ncnn12 [Compound 4] | 3.39 nM | 100% | 347 nM | 101% | 82 | 5.39 | 135.42 °C | – | – | 93% | 8.1 mg/kg | – | – | –
6 | C[C@@H]1CCN(c2ccccn2)C[C@H]1c1cc(C(F)F)nc2ncnn12.Cl [Compound 32] | – | 86% | 1660 nM | 87% | 38 | <5 | – | 170 nM | – | – | – | 18% | – | –
7 | C[C@@H]1CCN(c2cc(I)ccn2)C[C@H]1c1cc(C(F)F)nc2ncnn12 [Compound 16] | – | 100% | 224 nM | 99% | 95 | 6.19 | – | 18.2 nM | – | – | – | – | -14% | –
8 | C[C@@H]1CCN(c2ccc(C#N)cn2)C[C@H]1c1cc(C(F)F)nc2ncnn12 [Compound 35] | – | 99% | 1380 nM | 85% | 31 | <5 | – | 162 nM | – | – | – | 0% | – | –
9 | COc1cccc2c(N3CC[C@@H](C)[C@H](c4cc(C(F)F)nc5ncnn45)C3)nccc12.Cl [Compound 10] | – | 99% | 490 nM | 100% | 84 | 5.53 | – | 12.9 nM | – | – | 20 mg/kg | – | – | 53%
10 | C[C@H]1CCN(c2nccc3ccc(Br)cc23)C[C@@H]1c1cc(C(F)F)nc2ncnn12 [Compound 29] | – | 8% | 2510 nM | 84% | 99 | 5.85 | 134.49 °C | 2950 nM | – | – | – | – | – | –
11 | C[C@@H]1CCN(c2ncnc3ccccc23)C[C@H]1c1cc(C(F)F)nc2ncnn12 [Compound 12] | – | 100% | 646 nM | 96% | 67 | 5.25 | – | 14.5 nM | – | – | – | 1% | – | –
12 | C[C@@H]1CCN(c2nccc3[nH]ccc23)C[C@H]1c1cc(C(F)F)nc2ncnn12 [Compound 9] | – | 101% | 708 nM | 92% | 60 | 5.13 | – | 12.6 nM | – | – | – | – | – | 36%
13 | Cc1cccc2ccnc(N3CC[C@@H](C)C(c4cc(C(F)F)nc5ncnn45)C3)c12 (stereo partly shown) [Compound 41] | – | 99% | 4680 nM | 76% | 65 | 5.14 | – | 309 nM | – | – | – | – | -8% | –
14 | C[C@@H]1CCN(c2cc(N3CCOCC3)ccn2)C[C@H]1c1cc(C(F)F)nc2ncnn12 [Compound 27] | – | 100% | 2630 nM | 80% | 48 | 5.07 | – | 107 nM | – | – | – | – | 0% | –
15 | C[C@@H]1CCN(c2nccc3ccc(O)cc23)C[C@H]1c1cc(C(F)F)nc2ncnn12 [Compound 18] | 25.1 nM | 101% | 331 nM | 97% | 65 | 5.14 | – | – | – | – | – | – | – | -6%
16 | Cc1ccc(C#N)c(N2CC[C@@H](C)[C@H](c3cc(C(F)F)nc4ncnn34)C2)n1 [Compound 17] | – | 100% | 102 nM | 97% | 66 | 5.15 | – | 19.5 nM | -18% | – | – | – | – | –
17 | C[C@@H]1CCN(c2ccnc3ccccc23)C[C@H]1c1cc(C(F)F)nc2ncnn12 [Compound 42] | – | 99% | 1230 nM | 91% | 70 | 5.27 | – | 20.4 nM | – | – | – | -8% | – | –
